In patent US20070185055A1, “Method for treating cachexia with retinoid ligands” (priority 2006, published 2007):

Legend:
[1] = system: nude mice bearing H292 xenografts (non-small cell lung cancer cells H292); experiment: Cachexia in nude mice bearing H292 xenografts; type: in vivo; details: for body weight of the animals: s.c. H292 xenograft
Description: FIGS. 1-5 comprise charts or graphs disclosing the results of tests obtained with experimental animals that have been inoculated with a xenograft of non-small cell lung cancer cells H292 or with small cell lung cancer cells H446, and which were then orally administered the RXR agonist Compound 1 referred to above. […]
Specifically, in the experiment shown in FIG. 1 nude mice were subcutaneously transplanted with non-small cell lung cancer cells H292. A group of the animals was given a daily oral dose of 10 mg per kilogram body weight of Compound 1 in a suitable pharmaceutically acceptable vehicle. A group of the control animals was given the vehicle only.
In the experiment shown in FIG. 4 the right gastrocnemius muscle of the control animals and of the animals treated with Compound 1 in a daily dose of 10 mg/kg, as described in connection with FIG. 1, was weighed after the animals had been sacrificed.
In the experiment shown in FIG. 5, the food intake of nude mice with and without H292 xenografts was evaluated. Mice with H292 xenografts had reduced appetite compared with normal control. […] Therefore, adminstration of Compound 1 reverses poor appetite in cachectic animals. […]

[2] = system: SCID mice transplanted with small cell lung cancer cells H446; experiment: Cachexia in SCID mice bearing metastatic H446 tumors; type: in vivo; details: daily oral dose 3 mg/kg or 10 mg/kg, versus vehicle only (FIG. 3)
Procedure: FIGS. 1-5 comprise charts or graphs disclosing the results of tests obtained with experimental animals that have been inoculated with a xenograft of non-small cell lung cancer cells H292 or with small cell lung cancer cells H446, and which were then orally administered the RXR agonist Compound 1 referred to above.
In the experiment shown in FIG. 3, SCID mice were subcutaneously transplanted with small cell lung cancer cells H446. A first group of the animals was given a daily oral dose of 3 mg per kilogram body weight of Compound 1 in a suitable pharmaceutically acceptable vehicle, and a second group was given a daily oral dose of 10 mg per kilogram body weight in the same vehicle. A group of the control animals was given the vehicle only.

[3] = system: AIDS and cancer patients; details: cited from earlier work
[4] = patients, J. Clin. Oncol., 20: 567 (2002)
[5] = AIDS as well as cancer patients, literature

CC(/C=C/[C@@H]1C[C@]1(C)c1ccc2c(c1)C(C)(C)CCC2(C)C)=C\C(=O)O [Compound 1]
weight of the right gastrocnemius muscle ([1]; H292 xenograft mice, 62 days after transplantation, daily dose 10 mg/kg, versus control (FIG. 4)): prevents muscle wasting | average food intake ([1]; nude mice with H292 xenografts, daily dose 10 mg/kg, compared with normal mice (FIG. 5)): equal amount of food intake as normal mice | percentage of survival ([1]; nude mice, H292 xenograft, daily oral dose 10 mg/kg, versus vehicle (FIG. 2)): significantly better survival rate | body weight of the animals ([1]; nude mice, daily oral dose 10 mg/kg, versus vehicle only (FIG. 1)): significantly greater body weights | body weight of the animals [2]: significantly greater body weights

CCC[C@]1(c2ccc3c(c2)C(C)(C)CCC3(C)C)C[C@H]1/C=C/C(C)=C/C(=O)O [Compound 2]
average food intake ([1]; nude mice bearing H292 xenografts, daily dose 50 mg/kg, versus vehicle (FIG. 7)): significantly larger food intake | body weight of the animals ([1]; nude mice, daily oral dose 50 mg/kg, versus vehicle only (FIG. 6)): significantly greater body weights

CCCCCc1cc(O)c2c(c1)OC(C)(C)[C@@H]1CCC(C)=C[C@@H]21 [Dronabinol]
appetite [3, 4]: improved appetite | mood and body weight improvement [3, 4]: no effect

CC(=O)O[C@]1(C(C)=O)CC[C@H]2[C@@H]3C=C(C)C4=CC(=O)CC[C@]4(C)[C@H]3CC[C@@]21C [Megestrol acetate]
body weight gain [3, 5]: at least five pounds | primary body component that increased [3, 5]: fat, but not lean body mass

C[C@]12COC(=O)C[C@@H]1CC[C@@H]1[C@@H]2CC[C@@]2(C)[C@H]1CC[C@]2(C)O [Oxandrolone]
body weight ([3]; patients, literature, for Oxandrolone might have represented primary edema): moderate increase of body weight
